# Results taken from US7507568B2, “Three dimensional coordinates of HPTPbeta” (The Proctor & Gamble Company, priority 2002, dated 2009).
# Molecular target: T1, PTPbeta catalytic domain [SEQ ID NO: 7] (Homo sapiens, UniProt P23467)
# T1 construct: made in house; host or cells: Escherichia coli BL21-RIL
# Assay: Inhibition of HPTPbeta (relative inhibitor potency, stated in words)
# Format: biochemical
# Conditions: qualitative comparison; no numerical values or assay method printed
# T1 sequence (P23467 with tags, fused parts or gaps): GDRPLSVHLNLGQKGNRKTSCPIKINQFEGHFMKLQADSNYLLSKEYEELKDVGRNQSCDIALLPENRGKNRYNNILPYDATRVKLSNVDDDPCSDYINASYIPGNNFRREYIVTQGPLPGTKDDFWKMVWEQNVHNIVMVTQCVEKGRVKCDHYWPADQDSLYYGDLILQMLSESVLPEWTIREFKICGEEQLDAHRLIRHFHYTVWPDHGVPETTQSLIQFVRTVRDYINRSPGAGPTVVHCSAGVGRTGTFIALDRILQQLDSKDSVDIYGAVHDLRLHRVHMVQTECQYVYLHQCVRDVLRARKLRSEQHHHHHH
smiles,measurement,value
"CNC(=O)[C@H](Cc1ccc(NS(=O)(=O)O)cc1)NC(=O)C(Cc1ccc(O)cc1)NC(=O)OC(C)(C)C (stereo in doubt) [Compound 2, {2-(4-Hydroxy-phenyl)-1-[1-methylcarbamoyl-2-(4-sulfoamino-phenyl)-ethylcarbamoyl]-ethyl}-carbamic acid tert-butyl ester]",inhibitor potency relative to Compound 1,more potent inhibitor than Compound 1
